Data on six compounds can be found in patent publication US7705029B2 (Synta Pharmaceuticals Corp., priority 2004, dated 2010).

A value given as a limit tells only on which side of the number the result lay.

The test system of the test is IL-2 production in a Human Jurkat Cell Line. The test can be described thus: Inhibition of IL-2 production in PHA-stimulated Jurkat cells (IL-2 ELISA). It is filed as cell-based. The conditions noted are these: Homo sapiens, Jurkat, 20 h, read-out: IC50 (concentration at which IL-2 release is inhibited by 50%). The procedure: Jurkat cells (ATCC, Cat# TIB-152) were grown in RPMI1640 medium (ATCC, Cat# 30-2001) containing 10% of FBS (ATCC, Cat# 30-2020). For compound screening, Jurkat cells were plated in 96-well plates at a density of 0.5 million cells per well in RPMI1640 medium containing 1% of FBS. Then, various concentrations of each test compound were added to the cell plates followed by addition of PHA (Sigma, Cat# L-9017) at a final concentration of 2.5 μg/ml to stimulate IL-2 production. Cells were then incubated at 37° C. (+5% CO2) for 20 hours before ELISA assay. After 20 hours incubation, cell plates were centrifuged at 500-800 g for 5 minutes and the supernatants was collected for IL-2 detection using the human IL-2 ELISA kit purchased from Cell Sciences (Cat# 851.500.020). The ELISA assay for IL-2 production was done in 96-well plates using a protocol provided by Cell Sciences.
The IC50 (i.e., the concentration at which IL-2 release is inhibited by 50%) was determined and the results are shown in the Table. […] The designation “A” means an IC50 less than 0.010 μM; the designation B means an IC50 between 0.010 and 1.0 μM; and the designation “C” mean an IC50 greater than 1 μM.
Background: In an ELISA, binding on a coated surface is turned into a signal by an enzyme label.
In the case of `N#CC(=Cc1ccc(-n2ccc(C(F)(F)F)n2)cc1)c1cc(F)ccc1F` [Compound 42, 2-(2,5-Difluoro-phenyl)-3-[4-(3-trifluoromethyl-pyrazol-1-yl)-phenyl]-acrylonitrile], the IC50 is over 1000 nM.

Take `N#CC(=Cc1cccc(-n2nc(C(F)(F)F)cc2C(F)(F)F)c1)c1cccc(F)c1F` [Compound 43, 3-[3-(3,5-Bis-trifluoromethyl-pyrazol-1-yl)-phenyl]-2-(2,3-difluoro-phenyl)-acrylonitrile]: the IC50 was over 1000 nM.

Regarding `N#CC(=Cc1cccc(-n2nc(C(F)(F)F)cc2C(F)(F)F)c1)c1cc(F)ccc1F` [Compound 44, 3-[3-(3,5-Bis-trifluoromethyl-pyrazol-1-yl)-phenyl]-2-(2,5-difluoro-phenyl)-acrylonitrile], the IC50 is over 1000 nM.

Consider `N#CC(=Cc1ccc(-n2c(C(F)(F)F)nc3ccccc32)cc1)c1cccc(F)c1F` [Compound 45, 2-(2,3-Difluoro-phenyl)-3-[4-(2-trifluoromethyl-benzoimidazol-1-yl)-phenyl]-acrylonitrile], for which the IC50 fell in the range of 10 to 1000 nM.

As for `N#CC(=Cc1ccc(-n2c(C(F)(F)F)nc3ccccc32)cc1)c1cc(F)ccc1F` [Compound 46, 2-(2,5-Difluoro-phenyl)-3-[4-(2-trifluoromethyl-benzoimidazol-1-yl)-phenyl]-acrylonitrile], the IC50 lay in the range of 10 to 1000 nM.

On to `N#CC(=Cc1ccc(-n2cccn2)cc1)c1ccccc1F` [Compound 48, 2-(2-Fluoro-phenyl)-3-(4-pyrazol-1-yl-phenyl)-acrylonitrile], for which the IC50 was over 1000 nM.
